The nature of series [1]: pH stability in buffers, determined by LC-MS. Type of series: physicochemical. As for the experimental part: pH stability was assessed as follows. 0.1 mg of sample was dissolved into 0.2-0.3 mL of DMSO, and the resulting solution was added dropwise into different pH buffers (1 mL) while maintain clear solutions during testing time period. The samples were collected from several time points (e.g., over 72 hours), and pH stability was determined by LC-MS. pH buffer was prepared as follows: pH 8.0 sodium borate buffer: Add 9.534 g Sodium borate decahydrate, 1.461 g Sodium chloride, and 0.393 g DTPA to 900 mL distilled water, make sure all powers dissolve completely, then make final volume to 1 L by adding water. pH 7.4 sodium borate buffer: Add […], 9.534 g Sodium borate decahydrate, 1.461 g Sodium chloride, and 0.393 g DTPA to 900 mL distilled water, make sure all powers dissolve completely, then make final volume to 1 L by adding water. pH 5.0 succinate acid buffer: Add 10 mM succinate acid to 150 mL distilled water, and then change the pH to pH5.0 by adding 0.5M NaOH, then make final volume to 250 mL by adding water. pH 7.4 PBS buffer: commercially available. Stability was assessed at 72 hours by LCMS.

A further series deals with Human liver Cathepsin B (Homo sapiens, UniProt P07858). Kind of series: Cathepsin B cleavage assay of linker-payloads.
The nature of series [2]: Solubility test in water, LCMS against standard curve.
Description: (§1) The DMSO solution (1 mg/mL, 0.5 mL) was diluted with water (4.5 mL) to generate solution A (0.1 mg/mL, 5 mL, 0.5 mg). Solution A (0.1 mg/mL, 0.5 mL) was diluted with water (4.5 mL) to generate solution B (0.01 mg/mL, 5 mL, 0.05 mg). Solution B (0.01 mg/mL, 0.5 mL) was diluted with water (4.5 mL) to generate solution C (1 μg/mL, 5 mL, 5 μg). Solution C (1 μg/mL, 0.5 mL) was diluted with water (4.5 mL) to generate solution D (0.1 μg/mL, 5 mL, 0.5 μg). The testing sample (0.05 mg) was suspended in water (1 mL), and was sonicated for 5-30 min to dissolve the sample. If no clear solution was observed, the resulting suspension was centrifuged and the clear supernatant solution was collected for analysis. All the standard solutions A, B, C, D and sample solutions were tested using same method on the same LC-MS instrument. Solubility was assessed by LCMS and calculated based on a standard curve.
[3] abbreviates: pH7.4 and 8 buffer, RT, Table 3-1.
Setting [4] is: Solubility (mg/mL), in water, Table 3-1.
Setting [5] is: pH7.4 or 8 buffer, room temperature, Table 3.
Setting [6] is: Solubility (mg/mL), in water, Table 3.

Results on 13 molecules are retold here after patent US20240408223A1 (REGENERON PHARMACEUTICALS, INC., priority 2017, published 2024).

Converted amounts (≈) assume the structure as drawn. *1 amine or outer side, *2 acyl side, *3 side chain or, on linkers, in order; H or OH if unused. Where a SMILES comes first, the peptide text is derived from it. [ ]: non-standard residue; d: D form. The star is where a group is joined. X4 = C[N+](C)(C)CCNC(=O)CCOCCOCCOCCOCCn1nnc2c1CCCCCC2OCC(=O)*; Dolaproine = CO[C@@H]([C@@H]1CCCN1)[C@@H](C)C(=O)O; X3 = O=C(COC1CCCCCc2c1nnn2CCOCCOCCOCCOCCOCCO)*; Dil = CC[C@H](C)[C@H](NC)[C@@H](CC(=O)O)OC; PABC = O=C(OCc1ccc(N[*:1])cc1)[*:2]; DBCO = C1#Cc2ccccc2N(*)Cc2ccccc21; X1 = C[C@@H](N*)[C@@H](O)c1ccccc1; Cit = NC(=O)NCCC[C@H](N)C(=O)O; PEG4 = NCCOCCOCCOCCOCCC(=O)O; Suc = O=C(CCC(=O)[*:2])[*:1]; NMeV = CN[C@H](C(=O)O)C(C)C

Description for Human liver Cathepsin B: For the assay, the linker-payload stock solution (10 mM of linker-payload in DMSO) was added into a solution of 100 mM NaOAc, 10 mM dithiothreitol, at pH5 to obtain a 50 μM substrate solution. […] The Cathepsin B and substrate solution was mixed with and without 10 mM of a Cathepsin B inhibitor (CA074; APE Bio, Cat #A1926), and incubated at 37° C. for 4 hours. Following the 4 hour incubation, acetic acid and then acetonitrile were added to stop the reaction. The quenched samples then underwent centrifugation at 14,000 rpm. Aliquots of the resultant supernatants were then diluted with equal volume of water and analyzed by LC/MS to determine the amount of payload released.
Description for physchem: as §1

With `CC(C)[C@H](NC(=O)[C@@H](CCCCNC(=O)COC1CCCCCc2c1nnn2CCOCCOCCOCCOCCC(=O)NCCS(=O)(=O)O)NC(=O)CCOCCOCCOCCOCCNC(=O)CCC(=O)N1Cc2ccccc2C#Cc2ccccc21)C(=O)N[C@@H](CCCNC(N)=O)C(=O)Nc1ccc(COC(=O)N[C@@H](CO)C(=O)Nc2ccc3c(c2)[C@@]2(C)CCC[C@](C)(C(=O)NC(=O)[C@@]4(C)CCC[C@]5(C)c6cc(O)ccc6CC[C@@H]45)[C@@H]2CC3)cc1` (stereo partly drawn) [1q], in series [1] (setting [3]), the “pH Stability” value is “Y (stable in pH7.4 and 8 buffer at RT for more than 3 days)”. For the same molecule, at Human liver Cathepsin B (Table 1D), the “CapB cleavage rate (%) at 4 hrs” value was 30.4%. The molecule further registered a solubility in series [2] of 170 µg/mL (≈ 75.7 µM).
Regarding `CCCC1O[C@@H]2C[C@H]3[C@@H]4C[C@H](F)C5=CC(=O)C=C[C@]5(C)[C@@]4(F)[C@@H](O)C[C@]3(C)[C@]2(C(=O)COc2ccc(NC(=O)OCc3ccc(NC(=O)[C@H](CCCNC(N)=O)NC(=O)[C@@H](NC(=O)[C@@H](CCCCNC(=O)COC4CCCCCc5c4nnn5CCOCCOCCOCCOCCC(=O)NCC[N+](C)(C)C)NC(=O)CCOCCOCCOCCOCCNC(=O)OC[C@@H]4[C@@H]5CCC#CCC[C@@H]54)C(C)C)cc3)cc2)O1` (stereo partly drawn) [IIIe], the “pH Stability” value in series [1] (setting [3]) is “Y (stable in pH7.4 and 8 buffer at RT for more than 3 days)”. The molecule also yielded a solubility in series [2] (setting [4]) of more than 10000 µg/mL.
For the molecule `CCCC1O[C@@H]2C[C@H]3[C@@H]4C[C@H](F)C5=CC(=O)C=C[C@]5(C)[C@@]4(F)[C@@H](O)C[C@]3(C)[C@]2(C(=O)COc2ccc(NC(=O)[C@H](C)NC(=O)[C@@H](NC(=O)[C@@H](CCCCNC(=O)COC3CCCCCc4c3nnn4CCOCCOCCOCCOCCC(=O)NCCS(=O)(=O)O)NC(=O)CCOCCOCCOCCOCCNC(=O)CCC(=O)N3Cc4ccccc4C#Cc4ccccc43)C(C)C)cc2)O1` (stereo partly drawn) [1j], the “pH Stability” value in series [1] (setting [3]) is “Y (stable in pH7.4 and 8 buffer at RT for more than 3 days)”; in series [1] (setting [5]) it was “Y (stable in pH7.4 or 8 buffer at room temperature for more than 3 days)”. Further, the “CapB cleavage rate (%) at 4 hrs” value on Human liver Cathepsin B (Table 1C) and at Human liver Cathepsin B (Table 1D) was 30.8% each time. Also, the solubility in series [2] (setting [6]) and in series [2] (setting [4]) was more than 10000 µg/mL throughout.
Regarding `CC[C@H](C)[C@@H]([C@@H](CC(=O)N1CCC[C@H]1[C@H](OC)[C@@H](C)C(=O)N[C@H](C)[C@@H](O)c1ccccc1)OC)N(C)C(=O)[C@@H](NC(=O)[C@H](C(C)C)N(C)C(=O)OCc1ccc(NC(=O)[C@H](CCCNC(N)=O)NC(=O)[C@@H](NC(=O)[C@@H](CCCCNC(=O)COC2CCCCCc3c2nnn3CCOCCOCCOCCOCCC(=O)NCC[N+](C)(C)C)NC(=O)CCOCCOCCOCCOCCNC(=O)CCC(=O)N2Cc3ccccc3C#Cc3ccccc32)C(C)C)cc1)C(C)C` (stereo partly drawn) [Ib] ({DBCO-Suc-PEG4}-[dK](X4)V[Cit][PABC][NMeV]V[Dil][Dolaproine]-X1), the “CapB cleavage rate (%) at 4 hrs” value at Human liver Cathepsin B (Table 1D) was found to be 65%.
Take `CC(C)[C@H](NC(=O)[C@@H](CCCCNC(=O)COC1CCCCCc2c1nnn2CCOCCOCCOCCOCCC(=O)NCCS(=O)(=O)O)NC(=O)CCOCCOCCOCCOCCNC(=O)CCC(=O)N1Cc2ccccc2C#Cc2ccccc21)C(=O)N[C@@H](C)C(=O)Nc1ccc2c(c1)[C@@]1(C)CCC[C@](C)(C(=O)NC(=O)[C@@]3(C)CCC[C@]4(C)c5cc(O)ccc5CC[C@@H]34)[C@@H]1CC2` (stereo partly drawn) [1m]: the “CapB cleavage rate (%) at 4 hrs” value at Human liver Cathepsin B (Table 1C) and at Human liver Cathepsin B (Table 1D) was 44.2% each time.
Regarding `CC[C@H](C)[C@@H]([C@@H](CC(=O)N1CCC[C@H]1[C@H](OC)[C@@H](C)C(=O)N[C@H](C)[C@@H](O)c1ccccc1)OC)N(C)C(=O)[C@@H](NC(=O)[C@H](C(C)C)N(C)C(=O)OCc1ccc(NC(=O)[C@H](CCCNC(N)=O)NC(=O)[C@@H](NC(=O)CCOCCOCCOCCOCCNC(=O)CCC(=O)N2Cc3ccccc3C#Cc3ccccc32)C(C)C)cc1)C(C)C` [10d] ({DBCO-Suc-PEG4}-V[Cit][PABC][NMeV]V[Dil][Dolaproine]-X1), the “pH Stability” value in series [1] (setting [3]) is “Y (stable in pH7.4 and 8 buffer at RT for more than 3 days)”. In the series “physchem”, this molecule yielded a solubility of less than 100 µg/mL.
As to `CCCC1O[C@@H]2C[C@H]3[C@@H]4C[C@H](F)C5=CC(=O)C=C[C@]5(C)[C@@]4(F)[C@@H](O)C[C@]3(C)[C@]2(C(=O)CNC(=O)OCc2ccc(NC(=O)[C@H](CCCNC(N)=O)NC(=O)[C@@H](NC(=O)CCOCCOCCOCCOCCNC(=O)CCC(=O)N3Cc4ccccc4C#Cc4ccccc43)C(C)C)cc2)O1` (stereo partly drawn) [10a], in series [1] (setting [3]), the “pH Stability” value is “Y (stable in pH7.4 and 8 buffer at RT for more than 3 days)”. Moreover, on Human liver Cathepsin B (Table 1D), the “CapB cleavage rate (%) at 4 hrs” value is 18.6%. This molecule yielded a solubility in series [2] (setting [4]) of 20 µg/mL (≈ 14.2 µM).
`CC(C)[C@H](NC(=O)CCOCCOCCOCCOCCNC(=O)CCC(=O)N1Cc2ccccc2C#Cc2ccccc21)C(=O)N[C@@H](C)C(=O)Nc1ccc2c(c1)[C@@]1(C)CCC[C@](C)(C(=O)NC(=O)[C@@]3(C)CCC[C@]4(C)c5cc(O)ccc5CC[C@@H]34)[C@@H]1CC2` [10b, 1-(4-{2-Azatricyclo[10.4.0.0^4,9]hexadeca-1(12),4(9),5,7,13,15-hexaen-10-yn-2-yl}-4-oxobutanamido)-N-[(1 S)-1-{[(1 S)-1-{[(4bS,8S,8aR)-8-{[(1 S,4aS,10aR)-6-hydroxy-1,4a-dimethyl-1,2,3,4,4a,9,10,10a-octahydrophenanthrene-1-carbonyl]carbamoyl}-4b,8-dimethyl-4b,5,6,7,8,8a,9,10-octahydrophenanthren-3-yl]carbamoyl}ethyl]carbamoyl}-2-methylpropyl]-3,6,9,12-tetraoxapentadecan-15-amide] returned a solubility in series [2] of less than 100 µg/mL.
Turning to `CC[C@H](C)[C@@H]([C@@H](CC(=O)N1CCC[C@H]1[C@H](OC)[C@@H](C)C(=O)N[C@H](C)[C@@H](O)c1ccccc1)OC)N(C)C(=O)[C@@H](NC(=O)[C@H](C(C)C)N(C)C(=O)OCc1ccc(NC(=O)[C@H](CCCNC(N)=O)NC(=O)[C@@H](NC(=O)[C@@H](CCCCNC(=O)COC2CCCCCc3c2nnn3CCOCCOCCOCCOCCOCCO)NC(=O)CCOCCOCCOCCOCCNC(=O)CCC(=O)N2Cc3ccccc3C#Cc3ccccc32)C(C)C)cc1)C(C)C` (stereo partly drawn) [1a] ({DBCO-Suc-PEG4}-[dK](X3)V[Cit][PABC][NMeV]V[Dil][Dolaproine]-X1), in series [1] (setting [3]), the “pH Stability” value is “Y (stable in pH7.4 and 8 buffer at RT for more than 3 days)”. This molecule also showed a solubility in the series “physchem” of 170 µg/mL (≈ 75.3 µM).
Take `CCCC1O[C@@H]2C[C@H]3[C@@H]4C[C@H](F)C5=CC(=O)C=C[C@]5(C)[C@@]4(F)[C@@H](O)C[C@]3(C)[C@]2(C(=O)COc2ccc(NC(=O)[C@H](CCCNC(N)=O)NC(=O)[C@@H](NC(=O)[C@@H](CCCCNC(=O)COC3CCCCCc4c3nnn4CCOCCOCCOCCOCCC(=O)NCCS(=O)(=O)O)NC(=O)CCOCCOCCOCCOCCNC(=O)CCC(=O)N3Cc4ccccc4C#Cc4ccccc43)C(C)C)cc2)O1` (stereo partly drawn) [1k]: the “pH Stability” value in series [1] (setting [3]) is “Y (stable in pH7.4 and 8 buffer at RT for more than 3 days)”; in series [1] (setting [5]), “Y (stable in pH7.4 or 8 buffer at room temperature for more than 3 days)”. The “CapB cleavage rate (%) at 4 hrs” value at Human liver Cathepsin B (Table 1C) and at Human liver Cathepsin B (Table 1D) was 31.0% throughout. For the same molecule, the solubility in series [2] (setting [6]) and in series [2] (setting [4]) was more than 1000 µg/mL throughout.
For the molecule `CC[C@H](C)[C@@H]([C@@H](CC(=O)N1CCC[C@H]1[C@H](OC)[C@@H](C)C(=O)N[C@H](C)[C@@H](O)c1ccccc1)OC)N(C)C(=O)[C@@H](NC(=O)[C@H](C(C)C)N(C)C(=O)OCc1ccc(NC(=O)[C@H](CCCNC(N)=O)NC(=O)[C@@H](NC(=O)[C@@H](CCCCNC(=O)COC2CCCCCc3c2nnn3CCOCCOCCOCCOCCOCCP(=O)(O)O)NC(=O)CCOCCOCCOCCOCCNC(=O)CCC(=O)N2Cc3ccccc3C#Cc3ccccc32)C(C)C)cc1)C(C)C` (stereo partly drawn), the “pH Stability” value in series [1] (setting [3]) was “Y (stable in pH7.4 and 8 buffer at RT for more than 3 days)”. Further, on Human liver Cathepsin B (Table 1D), the “CapB cleavage rate (%) at 4 hrs” value was 50%. The solubility in series [2] (setting [4]) came out at 250 µg/mL (≈ 108 µM).
Take `CCCC1O[C@@H]2C[C@H]3[C@@H]4C[C@H](F)C5=CC(=O)C=C[C@]5(C)[C@@]4(F)[C@@H](O)C[C@]3(C)[C@]2(C(=O)CNC(=O)OCc2ccc(NC(=O)[C@H](CCCNC(N)=O)NC(=O)[C@@H](NC(=O)[C@@H](CCCCNC(=O)COC3CCCCCc4c3nnn4CCN(CC(=O)NCCS(=O)(=O)O)CC(=O)NCCS(=O)(=O)O)NC(=O)CCOCCOCCOCCOCCNC(=O)CCC(=O)N3Cc4ccccc4C#Cc4ccccc43)C(C)C)cc2)O1` (stereo partly drawn) [1f]: the “CapB cleavage rate (%) at 4 hrs” value at Human liver Cathepsin B (Table 1C) and at Human liver Cathepsin B (Table 1D) was 63.0% throughout.
For the molecule `CCCC1O[C@@H]2C[C@H]3[C@@H]4C[C@H](F)C5=CC(=O)C=C[C@]5(C)[C@@]4(F)[C@@H](O)C[C@]3(C)[C@]2(C(=O)CNC(=O)OCc2ccc(NC(=O)[C@H](CCCNC(N)=O)NC(=O)[C@@H](NC(=O)[C@@H](CCCCNC(=O)COC3CCCCCc4c3nnn4CCOCCOCCOCCOCCC(=O)NCCS(=O)(=O)O)NC(=O)CCOCCOCCOCCOCCNC(=O)CCC(=O)N3Cc4ccccc4C#Cc4ccccc43)C(C)C)cc2)O1` (stereo partly drawn) [1e], the “pH Stability” value was “Y (stable in pH7.4 and 8 buffer at RT for more than 3 days)” in series [1] (setting [3]); “Y (stable in pH7.4 or 8 buffer at room temperature for more than 3 days)” in series [1] (setting [5]). In addition, the “CapB cleavage rate (%) at 4 hrs” value on Human liver Cathepsin B (Table 1C) and at Human liver Cathepsin B (Table 1D) was 79.6% each time. For the same molecule, the solubility in series [2] (setting [6]) and in series [2] (setting [4]) was more than 10000 µg/mL each time.

One may read the solubility as how much of the substance goes into solution per volume.
